# Tests used:
# [1] = tested on: P. aeruginosa biofilms; conditions: combination with ultrasound below 70 kHz; Qian et al. 1997; cited from earlier work
# [2] = use in wounds, albumin present; from EP 0 700 249 B1; cited from earlier work
# [3] = own microbiological tests
# [4] = tested on: Pseudomonas aeruginosa; conditions: Pseudomonas aeruginosa versus Staphylococcus aureus; from EP 0 700 249 B1; cited from earlier work
Substance,increase in effect versus antibiotic alone [1] [%],loss of action caused by albumin (in wounds) [2],loss of action by the factor (effect of albumin) [3],"activity lower by a factor, in comparison with Staphylococcus aureus [4]"
gentamicin,> 250,–,–,–
polyhexamethylene biguanide [polyhexanide],–,considerable loss of action,about 10,~10

# Reference: patent US20100291041A1, “BACTERIOPHAGE PREPARATION AND USE” (INNOVATIONS-TRANSFER UPHOFF GMBH & CO. KG, priority 2008, published 2010)
